Values joined by “and” are separate entries in the source; they are usually repeats but may differ in a detail not shown here. Equal values may be shown once.
Tests used:
[1] = test system: IL9, IRF4, and SPI1 mRNA; assay: Quantitative PCR of IL9, IRF4 and SPI1 in human Th9 cells (Figure 8C); assay type: cell-based; conditions: result in words
Method: For Th9 polarization, cultures were supplemented with IL-4 (10 ng/mL, PeproTech, catalog AF-200-04), TGF-β (1 ng/mL), and neutralizing anti–IFN-γ monoclonal antibody (10 μg/mL, clone B27, BioXcell, catalog BE0245). After 3 days of initial culture, cells were either collected for downstream assays or continued in extended culture with refreshed cytokines to maintain lineage commitment without antibodies. Th9 cells were collected at days 4, 5, and 6 for subsequent in vitro assays. For adoptive transfer studies, day 4–cultured Th9 cells were washed and prepared for intravenous injection.
Total RNA was extracted from T cells using RNAex Pro Reagent (AG, catalog AG21102) following the manufacturer’s instructions. First-strand complementary DNA (cDNA) was synthesized using the Hifair III 1st Strand cDNA Synthesis SuperMix (YEASEN, catalog 11137ES10). Quantitative real-time PCR (qRT-PCR) was conducted on a QuantStudio 3 Real-Time PCR System (Thermo Fisher Scientific) using ChamQ Universal SYBR qPCR Master Mix (Vazyme, catalog Q711-02) and gene-specific primers (Tsingke Biotech).
For normalization, mouse samples were referenced to Gapdh or Actb, and human samples were normalized to GAPDH. Relative gene expression was calculated using the ΔΔCt method. Primer sequences are listed in Supplemental Table 5.

[2] = test system: Th2 cells; assay: Th2 polarization, IL-4 by flow cytometry (Figure 1G); assay type: cell-based, mouse
Method: Naive CD4^+ T cells were isolated from the spleens of C57BL/6J or CD45.1^+ OT-II mice using the MojoSort Mouse CD4 Naive T Cell Isolation Kit (BioLegend, catalog 480040), following the manufacturer’s protocol. Purified cells were cultured in RPMI-1640 medium supplemented with 10% FBS, 1% penicillin-streptomycin, and 0.1% β-mercaptoethanol (Gibco, catalog 21985023).
T cell polarization was initiated under plate-bound anti-CD3 (2 μg/mL, clone 17A2, BioXCell, catalog BE0002) and soluble anti-CD28 (1 μg/mL, clone 37.51, BioXCell, catalog BE0015-1) stimulation, with the addition of cytokines and neutralizing antibodies specific to each subset. For Th9 cells, these included IL-4 (10 ng/mL, Peprotech, catalog 400-04), TGF-β (1 ng/mL, EPOTO Biotech, catalog HF-2021), anti–IL-12 (5 μg/mL, clone C17.8, BioXCell, catalog BE0051), and anti–IFN-γ (10 μg/mL, clone XMG1.2, BioXCell, catalog BE0055); for Th1 cells, these included IL-12 (10 ng/mL, GenScript, catalog Z03211-50) and anti–IL-4 (5 μg/mL, clone 11B11, BioXCell, catalog BE0045); for Th2 cells, these included IL-4 (50 ng/mL), anti–IFN-γ (20 μg /mL), anti–IL-12 (5 μg/mL), Th17 cells: IL-6 (20 ng/mL, EPOTO Biotech, catalog MF-1006), TGF-β (1 ng/mL), IL-1β (10 ng/mL, Peprotech, catalog AF-211-11B), anti–IFN-γ (10 μg/mL), anti–IL-12 (5 μg/mL), and anti–IL-4 (5 μg/mL); and for Tregs, these included TGF-β (3 ng/mL). […]

## anteiso-C15 Leu7 surfactin [EpA]
[1]
  IL9, IRF4, SPI1 mRNA: upregulated
[2]; EpA 10 μM, individual replicates, n = 4
  IL-4 expression under Th2 polarization: 38.3947 and 41.0302 and 36.7821 and 38.8006
[2]; result in words
  effect on Th2 differentiation: only a minor increase in Th2 differentiation
